Measurements: the NIST ThermoML archive (doi:10.1016/j.jct.2017.08.004)
Numbers after ± are expanded uncertainties.

Legend:
[1] = for molar entropy: 101.33 kPa
[2] = Molar enthalpy of transition or fusion; details: Crystal; DSC

OC[C@@H](O)[C@H](O)[C@@H](O)CO [xylitol]
molar entropy ([1]; 1 K, Crystal, relaxation calorimetry): 0.0003173 ± 4.7e-05 J/K/mol
molar entropy ([1]; 2 K, Crystal, relaxation calorimetry): 0.002178 ± 0.00021 J/K/mol
molar entropy ([1]; 3 K, Crystal, relaxation calorimetry): 0.007217 ± 0.00068 J/K/mol
molar entropy ([1]; 4 K, Crystal, relaxation calorimetry): 0.01724 ± 0.0016 J/K/mol
molar entropy ([1]; 5 K, Crystal, relaxation calorimetry): 0.03429 ± 0.0032 J/K/mol
molar entropy ([1]; 6 K, Crystal, relaxation calorimetry): 0.06064 ± 0.0056 J/K/mol
molar entropy ([1]; 7 K, Crystal, relaxation calorimetry): 0.09884 ± 0.0091 J/K/mol
molar entropy ([1]; 8 K, Crystal, relaxation calorimetry): 0.1517 ± 0.014 J/K/mol
molar entropy ([1]; 9 K, Crystal, relaxation calorimetry): 0.2221 ± 0.02 J/K/mol
molar entropy ([1]; 10 K, Crystal, relaxation calorimetry): 0.3121 ± 0.029 J/K/mol
molar entropy ([1]; 15 K, Crystal, relaxation calorimetry): 1.099 ± 0.1 J/K/mol
molar entropy ([1]; 20 K, Crystal, relaxation calorimetry): 2.464 ± 0.23 J/K/mol
molar entropy ([1]; 25 K, Crystal, relaxation calorimetry): 4.334 ± 0.4 J/K/mol
molar entropy ([1]; 30 K, Crystal, relaxation calorimetry): 6.612 ± 0.61 J/K/mol
molar entropy ([1]; 35 K, Crystal, relaxation calorimetry): 9.217 ± 0.85 J/K/mol
molar entropy ([1]; 40 K, Crystal, relaxation calorimetry): 12.09 ± 1.1 J/K/mol
molar entropy ([1]; 45 K, Crystal, relaxation calorimetry): 15.19 ± 1.4 J/K/mol
molar entropy ([1]; 50 K, Crystal, relaxation calorimetry): 18.47 ± 1.7 J/K/mol
molar entropy ([1]; 55 K, Crystal, relaxation calorimetry): 21.88 ± 2 J/K/mol
molar entropy ([1]; 60 K, Crystal, relaxation calorimetry): 25.4 ± 2.3 J/K/mol
molar entropy ([1]; 65 K, Crystal, relaxation calorimetry): 29.01 ± 2.7 J/K/mol
molar entropy ([1]; 70 K, Crystal, relaxation calorimetry): 32.7 ± 3 J/K/mol
molar entropy ([1]; 75 K, Crystal, relaxation calorimetry): 36.44 ± 3.3 J/K/mol
molar entropy ([1]; 80 K, Crystal, relaxation calorimetry): 40.21 ± 3.7 J/K/mol
molar entropy ([1]; 85 K, Crystal, relaxation calorimetry): 44.01 ± 4 J/K/mol
molar entropy ([1]; 90 K, Crystal, relaxation calorimetry): 47.82 ± 4.4 J/K/mol
molar entropy ([1]; 95 K, Crystal, relaxation calorimetry): 51.65 ± 4.7 J/K/mol
molar entropy ([1]; 100 K, Crystal, relaxation calorimetry): 55.48 ± 5.1 J/K/mol
molar entropy ([1]; 110 K, Crystal, relaxation calorimetry): 63.13 ± 5.8 J/K/mol
molar entropy ([1]; 120 K, Crystal, relaxation calorimetry): 70.74 ± 6.5 J/K/mol
molar entropy ([1]; 130 K, Crystal, relaxation calorimetry): 78.31 ± 7.2 J/K/mol
molar entropy ([1]; 140 K, Crystal, relaxation calorimetry): 85.82 ± 7.9 J/K/mol
molar entropy ([1]; 150 K, Crystal, relaxation calorimetry): 93.27 ± 8.6 J/K/mol
molar entropy ([1]; 160 K, Crystal, relaxation calorimetry): 100.65 ± 9.2 J/K/mol
molar entropy ([1]; 170 K, Crystal, relaxation calorimetry): 107.96 ± 9.9 J/K/mol
molar entropy ([1]; 180 K, Crystal, relaxation calorimetry): 115.21 ± 11 J/K/mol
molar entropy ([1]; 190 K, Crystal, relaxation calorimetry): 122.4 ± 11 J/K/mol
molar entropy ([1]; 200 K, Crystal, relaxation calorimetry): 129.55 ± 12 J/K/mol
molar entropy ([1]; 210 K, Crystal, relaxation calorimetry): 136.64 ± 13 J/K/mol
molar entropy ([1]; 220 K, Crystal, relaxation calorimetry): 143.7 ± 13 J/K/mol
molar entropy ([1]; 230 K, Crystal, relaxation calorimetry): 150.72 ± 14 J/K/mol
molar entropy ([1]; 240 K, Crystal, relaxation calorimetry): 157.72 ± 14 J/K/mol
molar entropy ([1]; 250 K, Crystal, relaxation calorimetry): 164.69 ± 15 J/K/mol
molar entropy ([1]; 260 K, Crystal, relaxation calorimetry): 171.65 ± 16 J/K/mol
molar entropy ([1]; 270 K, Crystal, relaxation calorimetry): 178.59 ± 16 J/K/mol
molar entropy ([1]; 273.15 K, Crystal, relaxation calorimetry): 180.78 ± 17 J/K/mol
molar entropy ([1]; 280 K, Crystal, relaxation calorimetry): 185.53 ± 17 J/K/mol
molar entropy ([1]; 290 K, Crystal, relaxation calorimetry): 192.47 ± 18 J/K/mol
molar entropy ([1]; 298.15 K, Crystal, relaxation calorimetry): 198.13 ± 18 J/K/mol
molar entropy ([1]; 300 K, Crystal, relaxation calorimetry): 199.41 ± 18 J/K/mol
molar entropy ([1]; 305 K, Crystal, Small sample (50 mg) DSC): 202.93 ± 19 J/K/mol
molar entropy ([1]; 310 K, Crystal, Small sample (50 mg) DSC): 206.47 ± 19 J/K/mol
molar entropy ([1]; 315 K, Crystal, Small sample (50 mg) DSC): 210.02 ± 19 J/K/mol
molar entropy ([1]; 320 K, Crystal, Small sample (50 mg) DSC): 213.58 ± 20 J/K/mol
molar entropy ([1]; 325 K, Crystal, Small sample (50 mg) DSC): 217.15 ± 20 J/K/mol
molar entropy ([1]; 330 K, Crystal, Small sample (50 mg) DSC): 220.72 ± 20 J/K/mol
molar entropy ([1]; 335 K, Crystal, Small sample (50 mg) DSC): 224.31 ± 21 J/K/mol
molar entropy ([1]; 340 K, Crystal, Small sample (50 mg) DSC): 227.9 ± 21 J/K/mol
molar entropy ([1]; 345 K, Crystal, Small sample (50 mg) DSC): 231.52 ± 21 J/K/mol
molar entropy ([1]; 350 K, Crystal, Small sample (50 mg) DSC): 235.17 ± 22 J/K/mol
molar entropy ([1]; 355 K, Crystal, Small sample (50 mg) DSC): 238.92 ± 22 J/K/mol
molar entropy ([1]; 360 K, Crystal, Small sample (50 mg) DSC): 243.05 ± 22 J/K/mol
molar entropy ([1]; 380 K, Liquid, Small sample (50 mg) DSC): 367.99 ± 34 J/K/mol
molar entropy ([1]; 385 K, Liquid, Small sample (50 mg) DSC): 373.77 ± 35 J/K/mol
molar entropy ([1]; 390 K, Liquid, Small sample (50 mg) DSC): 379.42 ± 35 J/K/mol
molar entropy ([1]; 395 K, Liquid, Small sample (50 mg) DSC): 385 ± 36 J/K/mol
molar entropy ([1]; 400 K, Liquid, Small sample (50 mg) DSC): 390.52 ± 36 J/K/mol
molar entropy ([1]; 405 K, Liquid, Small sample (50 mg) DSC): 395.99 ± 37 J/K/mol
molar entropy ([1]; 410 K, Liquid, Small sample (50 mg) DSC): 401.41 ± 37 J/K/mol
molar entropy ([1]; 415 K, Liquid, Small sample (50 mg) DSC): 406.78 ± 38 J/K/mol
molar entropy ([1]; 420 K, Liquid, Small sample (50 mg) DSC): 412.1 ± 38 J/K/mol
molar entropy ([1]; 425 K, Liquid, Small sample (50 mg) DSC): 417.37 ± 39 J/K/mol
molar entropy ([1]; 430 K, Liquid, Small sample (50 mg) DSC): 422.59 ± 39 J/K/mol
molar entropy ([1]; 435 K, Liquid, Small sample (50 mg) DSC): 427.75 ± 40 J/K/mol
Normal melting temperature ([1]; Crystal, DTA): 93.0 ± 0.61 °C
Molar enthalpy of transition or fusion [2]: 39.5 ± 2.5 kJ/mol
